# Experiments:
# [1] = test system: human colon tumor HCT-116 cell line; settings: for GI50: HCT-116 cells, MTT assay, in house
# [2] = mouse, in vivo
# Bacillus subtilis 6633 = assay: Minimum inhibitory concentration (MIC) assay; type: cell-based; settings: Bacillus subtilis 6633, 37° C. for 18 h, no visible bacterial growth, duplicates
# Procedure: Minimum Inhibitory Concentration (MIC) Assay of Spirohexenolide A (1), using Bacillus subtilis 6633.
# Spirohexenolide A (1) in dimethyl sulfoxide (DMSO) was diluted to 10, 15, 30, 60, 120, 250, 500, and 1000 μg/mL stocks in tryptic soy broth with a final concentration of 1% DMSO. B. subtilis, cultured for 18 h at 37° C. in tryptic soy broth, was inoculated at 1/10000 to a final volume of 200 μL per well on a 96 well plate and then treated with 2 μL of a stock solution of 1 (10, 15, 30, 60, 120, 250, 500, and 1000 μg/mL in tryptic soy broth containing 1% DMSO). […] The compound was tested in duplicates.
# [3] = test system: NCI-60 human tumor cell line; assay: NCI-60 human tumor cell line screen, multiple dose / dose-response; type: cell-based
# HCT-116 cells [4] = assay: Cellular uptake and subcellular localization by fluorescence microscopy; type: cell-based, human; settings: live HCT-116 cells, 10 μM, time lapse over 24 h
# Procedure: HCT-116 cells (ATCC CCL-247) were cultured in Dulbecco's modification of Eagle's medium (DMEM) with 4.5 g L^−1 glucose, […], and 5% heat inactivated fetal calf serum (FCS) in glass-bottom dishes. Fluorescent images were collected on a Leica (Wetzlar, Germany) DMI6000 inverted confocal microscope with a Yokogawa (Tokyo, Japan) spinning disk confocal head, Orca ER High Resolution B&W Cooled CCD camera (6.45 μm/pixel at 1×) (Hamamatsu, Sewickley, Pa.), Plan Apochromat 40×/1.25 na and 63×/1.4 na objective, and a Melles Griot (Carlsbad, Calif.) Argon/Krypton 100 mW air-cooled laser for 488, 568, and 647 nm excitations. Confocal z-stacks were acquired in all experiments. […]
# Cellular uptake and localization of 1 in HCT-116 tumor cells was then evaluated using fluorescence microscopy. […] HCT-116 cells were treated with 10 μM 1 in DMEM containing 10% FCS, 100 U/mL penicillin-G, and 100 μg/mL streptomycin and analyzed by fluorescence microscopy. […] Within 6-12 h, fluorescence from 1 concentrated within vesicles surrounding the nucleus and remained in these structures (FIG. 4b). […]
# The cellular uptake of localization of 1 in HCT-116 tumor cells was then evaluated using fluorescence microscopy. […] HCT-116 cells were treated with 10 μM 1 in DMEM containing 10% FCS, 100 U/mL penicillin-G and 100 μg/mL streptomycin and analyzed by fluorescence microscopy. […]
# [5] = test system: neuroblastoma cells (Neuro2a); assay: Inhibition of mitosis; type: cell-based; settings: by inhibiting the exit from anaphase
# prostate = assay: NCI-60 human tumor cell line screen, single dose; type: cell-based; settings: dosed at 10 μM, single dose NCI-60
# [6] = test system: breast cancer cells (HeLa); assay: Inhibition of mitosis; type: cell-based; settings: by inhibiting the exit from anaphase
# renal cancers = assay: NCI-60 human tumor cell line screen, single dose; type: cell-based; settings: dosed at 10 μM, single dose NCI-60
# HCT-116 cells [7] = assay: Cell cycle effects by three-color confocal fluorescence microscopy; type: cell-based, human
# Source text: Images in a) and b) depict live cells. c) A confocal fluorescent image indicating the effects of 1 has on the cell structure. Cells treated as in a) were fixed with 0.1% formalin and stained for their DNA content with SYTO-60 (false colored in blue) (Wlodkowic et al., Cytometry A, 73:496-507 (2008)), actin with FITC-phalloidin (green) (Verderame et al., Proc Natl Acad Sci USA, 77:6624-6628 (1980)), and microtubules with BODIPY FL-paclitaxel (red) (Bicamumpaka et al., Int J Mol Med, 2:161-165 (1998)). For each experiment, HCT-116 cells were cultured to 10^6 cells/cm^2 in a 35 mm poly-D-lysine coated glass-bottom dish and treated with 1 mL of 10 μM 1 in Dulbecco's modified essential medium (DMEM) containing 10% fetal bovine serum (FBS), 100 U/mL penicillin-G and 100 μg/mL streptomycin.
# The effects of 1 on the cell cycle were also evaluated. HCT-116 cells cultured in DMEM were treated 1 h before the onset of mitosis with 10 μM 1 in DMEM. After 12 h (several hours after the completion of mitosis), the cells were fixed for 5 min with 0.5% formalin and 0.1% glutaraldehyde in PBS pH 7.2, washed extensively with PBS pH 7.2, treated with a cocktail of fluorescent probes to visualize DNA, actin, and microtubules and examined using three-color confocal fluorescence microscopy. […]
# melanoma = assay: NCI-60 human tumor cell line screen, single dose; type: cell-based; settings: dosed at 10 μM, single dose NCI-60
# [8] = target: T1, human migration inhibitory factor (hMIF) (Homo sapiens, UniProt P14174); assay: Anti-IAF tag immunoprecipitation, LC-MS/MS identification and Western blot; type: binding; settings: HCT-116 cell lysate, ~12 kDa band
# T1 construct: confirmed the presence of hMIF in the immunoprecipitated fraction of HCT-116 cell lysate; endogenous in cells; host or cells: HCT-116 cell lysate
# T1 sequence (P14174 2-115 limits assumed): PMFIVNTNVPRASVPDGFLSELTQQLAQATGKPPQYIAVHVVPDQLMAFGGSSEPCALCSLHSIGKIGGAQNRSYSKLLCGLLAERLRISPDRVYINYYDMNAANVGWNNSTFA
# Source text: A) Anti-IAF immunoprecipitation studies identify a ˜12 kDa band. Lane L1, L2 and L3 depict HCT116 cell lysate, an IAF dye elution (bands correspond to fragments of the anti-IAF mAb) and glycine wash, respectively. The ˜12 kDa band was identified in the glycine wash. B) Trypsin-digest LC-MS/MS analysis identified three peptides that overlapped with the hMIF protein (shown in red). C) Western blot analysis using a mouse anti-MIF mAb confirmed the presence of hMIF in the immunoprecipitated fraction of HCT-116 cell lysate, as well as in E. coli lysates bearing recombinanthMIF. Arrow denotes the position of hMIF. The upper bands arose from the mouse anti-IAF mAb used in this experiment (background).
# Attention was then turned to screening for proteins that bind to the spirohexenolides. Using the affinity properties of the IAF probe 4, we deployed an anti-IAF tag immunoprecipitation protocol to isolate a 12 kDa band (Lane L3 in FIG. 9A). […] Western blot analysis (FIG. 9C) confirmed hMIF the identification of hMIF.
compound,measurement,setting,value
spirohexenolide B,GI50,[1],61.2 ± 7.8 µM
spirohexenolide A,single dose producing toxicity,[2],6 to 10 mg/kg
same,MIC,Bacillus subtilis 6633,12.25 µM
same,activity (GI50) by cell line,"[3]; leukemia (CCRF-CEM, MOLT-4, RPMI-8226), lung cancer (HOP-92), colon cancer (SW-629) cell lines",enhanced activity
same,sensitivity in dose-response assays,"[3]; leukemia, renal cancer, and melanoma cell lines",selective sensitivity
same,IC50,[1],0.5 µM
same,GI50,[1],36 ± 5.1 µM
same,cell phenotype after treatment,HCT-116 cells [4],characteristic apoptotic phenotype
same,inhibition of mitosis,[5],inhibit mitosis
same,inhibition,prostate,85%
same,inhibition of mitosis,[6],inhibit mitosis
same,inhibition,renal cancers,95%
same,effect on the cell cycle,"HCT-116 cells [7]; 10 μM, treated 1 h before onset of mitosis, fixed after 12 h",induced cell cycle arrest during mitosis
same,inhibition of mitosis,"HCT-116 cells [7]; colon cancer cells (HCT111), by inhibiting the exit from anaphase",inhibit mitosis
same,inhibition,melanoma,96%
CC1=C[C@]2(C)/C=C(C)/C=C/C[C@@H](OC(=O)CCC(=O)NCCCCCCNC(=O)Cc3cc(=O)oc4cc(N(C)C)ccc34)/C=C3C=C/C(=C4\C(=O)O[C@]2(C[C@@H]1C)C4=O)OC/3 [probe 4],protein isolated by the probe,[8],human migration inhibitory factor (hMIF)
CC1=C[C@]2(C)/C=C(C)/C=C/C[C@@H](OC(=O)CCCn3cc(CNC(=O)Cc4cc(=O)oc5cc(N(C)C)ccc45)nn3)/C=C3C=C/C(=C4\C(=O)O[C@]2(C[C@@H]1C)C4=O)OC/3 [probe 3],cell phenotype after treatment,HCT-116 cells [4],characteristic apoptotic phenotype

# Reference: patent US8653283B2, “Anticancer agents” (The Regents of The University of California, priority 2009, dated 2014)
